Measurements from patent publication US12338220B2, “Antiviral pyrazolopiridinone compounds” (Novartis AG, priority 2019, dated 2025).
Where two headings read alike, the source gives them in different places.

How the values were obtained:
CMV-polymerase = CMV-polymerase (Human cytomegalovirus (strain AD169) (HHV-5) (Human herpesvirus 5), UniProt P08546); experiment: biochemical
CMV = experiment: microbe, parasite or virus in culture; assay type: cell-based; settings: Human betaherpesvirus 5, 72 h, read-out: CMV-Luc Cellular EC50, NN-NHDF cells, MOI 1, 72 hrs
[1] = CMV-polymerase Biochemical IC50
[2] = read-out: CMV-polymerase Biochemical IC50

## O=C(NCc1ccc(Cl)cc1)c1n[nH]c2c1CCN(CC1(S(=O)(=O)C3CC3)CC1)C2=O [Example 44, N-(4-Chlorobenzyl)-6-((1-(cyclopropylsulfonyl)cyclopropyl)methyl)-7-oxo-4,5,6,7-tetrahydro-1H-pyrazolo[3,4-c]pyridine-3-carboxamide]
CMV-polymerase; [1]
  IC50: 4 nM
CMV
  EC50: 76 nM

## CS(=O)(=O)C1(CN2CCc3c(nn4c3C(=O)N(Cc3ccc(C#N)cc3)CC4)C2=O)CC1 [Example 46, 4-((8-((1-(Methylsulfonyl)cyclopropyl)methyl)-1,7-dioxo-3,4,7,8,9,10-hexahydropyrido[3′,4′:3,4]pyrazolo[1,5-a]pyrazin-2(1H)-yl)methyl)benzonitrile]
CMV-polymerase; [1]
  IC50: 41 nM
CMV
  EC50: 746 nM

## N#Cc1ccc(CNC(=O)c2nn(CC3(CO)CC3)c3c2CCN(CC2(S(=O)(=O)C4CC4)CC2)C3=O)cc1 [Example 47, N-(4-Cyanobenzyl)-6-((1-(cyclopropylsulfonyl)cyclopropyl)methyl)-1-((1-(hydroxymethyl)cyclopropyl)methyl)-7-oxo-4,5,6,7-tetrahydro-1H-pyrazolo[3,4-c]pyridine-3-carboxamide]
CMV-polymerase; [1]
  IC50: 2 nM
CMV
  EC50: 42 nM

## CS(=O)(=O)C1(CN2CCc3c(C(=O)NCc4ccc(C#N)cc4)nn(CC4(CO)CC4)c3C2=O)CC1 [Example 48, N-(4-Cyanobenzyl)-1-((1-(hydroxymethyl)cyclopropyl)methyl)-6-((1-(methylsulfonyl)cyclopropyl)methyl)-7-oxo-4,5,6,7-tetrahydro-1H-pyrazolo[3,4-c]pyridine-3-carboxamide]
CMV-polymerase; [1]
  IC50: 11 nM
CMV
  EC50: 331 nM

## CC(C)(CO)S(=O)(=O)C1(CN2CCc3c(C(=O)NCc4ccc(C#N)cc4)n[nH]c3C2=O)CC1 [Example 49, N-(4-Cyanobenzyl)-6-((1-((1-hydroxy-2-methylpropan-2-yl)sulfonyl)cyclopropyl)methyl)-7-oxo-4,5,6,7-tetrahydro-1H-pyrazolo[3,4-c]pyridine-3-carboxamide]
CMV-polymerase; [1]
  IC50: 4 nM
CMV
  EC50: 58 nM

## Cn1nc(C(=O)NCc2ccc(Cl)cc2)c2c1C(=O)N(CC1(S(=O)(=O)C(C)(C)CO)CC1)CC2 [Example 50, N-(4-Chlorobenzyl)-6-((1-((1-hydroxy-2-methylpropan-2-yl)sulfonyl)cyclopropyl)methyl)-1-methyl-7-oxo-4,5,6,7-tetrahydro-1H-pyrazolo[3,4-c]pyridine-3-carboxamide]
CMV-polymerase; [1]
  IC50: 1 nM
CMV
  EC50: 20 nM

## Cn1nc(C(=O)NCc2ccc(Cl)nc2)c2c1C(=O)N(CC1(S(=O)(=O)C(C)(C)CO)CC1)CC2 [Example 51, N-((6-Chloropyridin-3-yl)methyl)-6-((1-((1-hydroxy-2-methylpropan-2-yl)sulfonyl)cyclopropyl)methyl)-1-methyl-7-oxo-4,5,6,7-tetrahydro-1H-pyrazolo[3,4-c]pyridine-3-carboxamide]
CMV-polymerase; [2]
  IC50: 6 nM
CMV
  EC50: 172 nM

## Cn1nc(C(=O)NCc2ccc(C#N)cc2)c2c1C(=O)N(CC1(S(=O)(=O)C(C)(C)CO)CC1)CC2 [Example 52, N-(4-Cyanobenzyl)-6-((1-((1-hydroxy-2-methylpropan-2-yl)sulfonyl)cyclopropyl)methyl)-1-methyl-7-oxo-4,5,6,7-tetrahydro-1H-pyrazolo[3,4-c]pyridine-3-carboxamide]
CMV-polymerase; [2]
  IC50: 1 nM
CMV
  EC50: 19 nM

## Cn1nc(C(=O)NCc2ccc(F)cc2)c2c1C(=O)N(CC1(S(=O)(=O)C(C)(C)CO)CC1)CC2 [Example 53, N-(4-Fluorobenzyl)-6-((1-((1-hydroxy-2-methylpropan-2-yl)sulfonyl)cyclopropyl)methyl)-1-methyl-7-oxo-4,5,6,7-tetrahydro-1H-pyrazolo[3,4-c]pyridine-3-carboxamide]
CMV-polymerase; [2]
  IC50: 7 nM
CMV
  EC50: 141 nM

## C[C@H](NC(=O)c1nn(C)c2c1CCN(CC1(S(=O)(=O)C(C)(C)CO)CC1)C2=O)c1ccc(C#N)cc1 [Example 54, (S)-N-(1-(4-Cyanophenyl)ethyl)-6-((1-((1-hydroxy-2-methylpropan-2-yl)sulfonyl)cyclopropyl)methyl)-1-methyl-7-oxo-4,5,6,7-tetrahydro-1H-pyrazolo[3,4-c]pyridine-3-carboxamide]
CMV-polymerase; [2]
  IC50: 2 nM
CMV
  EC50: 53 nM

## C[C@@H](NC(=O)c1nn(C)c2c1CCN(CC1(S(=O)(=O)C(C)(C)CO)CC1)C2=O)c1ccc(C#N)cc1 [Example 55, (R)-N-(1-(4-Cyanophenyl)ethyl)-6-((1-((1-hydroxy-2-methylpropan-2-yl)sulfonyl)cyclopropyl)methyl)-1-methyl-7-oxo-4,5,6,7-tetrahydro-1H-pyrazolo[3,4-c]pyridine-3-carboxamide]
CMV-polymerase; [2]
  IC50: 601 nM
CMV
  EC50: > 10000 nM

## Cn1nc(C(=O)NCc2ccc(C#N)cc2)c2c1C(=O)N(CC1(S(=O)(=O)C(C)(C)COC(F)F)CC1)CC2 [Example 58, N-(4-Cyanobenzyl)-6-((1-((1-(difluoromethoxy)-2-methylpropan-2-yl)sulfonyl)cyclopropyl)methyl)-1-methyl-7-oxo-4,5,6,7-tetrahydro-1H-pyrazolo[3,4-c]pyridine-3-carboxamide]
CMV-polymerase; [2]
  IC50: 1 nM
CMV
  EC50: 25 nM

## Cn1nc(C(=O)NCc2ccc(C#N)cc2)c2c1C(=O)N(CC1(S(=O)(=O)C(C)(C)C#N)CC1)CC2 [Example 59, N-(4-Cyanobenzyl)-6-((1-((2-cyanopropan-2-yl)sulfonyl)cyclopropyl)methyl)-1-methyl-7-oxo-4,5,6,7-tetrahydro-1H-pyrazolo[3,4-c]pyridine-3-carboxamide]
CMV-polymerase; [1]
  IC50: 1 nM
CMV
  EC50: 33 nM

## Cn1nc(C(=O)NCc2ccc(C#N)cc2)c2c1C(=O)N(CC1(S(=O)(=O)C(C)(C)CN3CC(F)C3)CC1)CC2 [Example 60, N-(4-Cyanobenzyl)-6-((1-((1-(3-fluoroazetidin-1-yl)-2-methylpropan-2-yl)sulfonyl)cyclopropyl)methyl)-1-methyl-7-oxo-4,5,6,7-tetrahydro-1H-pyrazolo[3,4-c]pyridine-3-carboxamide]
CMV-polymerase; [1]
  IC50: 2 nM
CMV
  EC50: 62 nM

## Cn1nc(C(=O)NCc2ccc(C#N)cc2)c2c1C(=O)N(CC1(S(=O)(=O)C(C)(C)CN3CCOCC3)CC1)CC2 [Example 61, N-(4-Cyanobenzyl)-1-methyl-6-((1-((2-methyl-1-morpholinopropan-2-yl)sulfonyl)cyclopropyl)methyl)-7-oxo-4,5,6,7-tetrahydro-1H-pyrazolo[3,4-c]pyridine-3-carboxamide]
CMV-polymerase; [2]
  IC50: 6 nM
CMV
  EC50: 145 nM

## CO[C@@H]1CCN(CC(C)(C)S(=O)(=O)C2(CN3CCc4c(C(=O)NCc5ccc(C#N)cc5)nn(C)c4C3=O)CC2)C1 [Example 62, (R)-N-(4-cyanobenzyl)-6-((1-((1-(3-methoxypyrrolidin-1-yl)-2-methylpropan-2-yl)sulfonyl)cyclopropyl)methyl)-1-methyl-7-oxo-4,5,6,7-tetrahydro-1H-pyrazolo[3,4-c]pyridine-3-carboxamide]
CMV-polymerase; [2]
  IC50: 4 nM
CMV
  EC50: 136 nM

## Cn1nc(C(=O)NCc2ccc(C#N)cc2)c2c1C(=O)N(CC1(S(=O)(=O)C(C)(C)CN3CC4CC(C3)O4)CC1)CC2 [Example 63, 6-((1-((1-(6-Oxa-3-azabicyclo[3.1.1]heptan-3-yl)-2-methylpropan-2-yl)sulfonyl)cyclopropyl)methyl)-N-(4-cyanobenzyl)-1-methyl-7-oxo-4,5,6,7-tetrahydro-1H-pyrazolo[3,4-c]pyridine-3-carboxamide]
CMV-polymerase; [2]
  IC50: 6 nM
CMV
  EC50: 220 nM
